# Test results from paper PMC10455244, “Alpha-Mangostin: A Potent Inhibitor of TRPV3 and Pro-Inflammatory Cytokine Secretion in Keratinocytes” (International Journal of Molecular Sciences, 2023).
# Legend:
# TRPV1 = details: read-out: IC50 (µM), channel inhibited TRPV1; cited from earlier work
# TNF-α = assay: ELISA, TNF-α release in NHEK; assay type: cell-based, human; details: 1 µM with 300 µM carvacrol, 24 h
# Excerpt: Constitutive activation of TRPV3 due to continuous stimulation or the presence of Olmsted mutations causes noticeable skin inflammation due to the increased secretion of pro-inflammatory cytokines from the keratinocytes. Besides, in atopic dermatitis (AD), cytokine release from keratinocytes contributes to the inflammatory environment, which drives many characteristic AD symptoms. Therefore, we determined the effect of TRPV3 activation on cytokine release instead of TRPV3 expression and evaluated whether alpha-mangostin suppressed TRPV3-mediated cytokine secretion in normal human keratinocytes. The levels of secreted cytokines (interleukin (IL)-6, IL-8, and tumor necrosis factor-alpha (TNF-α)) were measured using enzyme-linked Immunosorbent assay (ELISA) kits due to their high sensitivity and quantitation ability. The cells were induced with 300 µM carvacrol, with or without 1 µM alpha-mangostin, and 10 µM 74a.
# Figure 5 Alpha-mangostin (α-MG) inhibited carvacrol-induced cytokine release in NHEK cells and rescued carvacrol-induced cell death. (A) Alpha-mangostin inhibited the carvacrol-induced release of IL-8 and IL-6 in NHEK. Cells were induced by 300 µM carvacrol with or without either 1 µM alpha-mangostin or 10 µM 74a for 24 h before the ELISA assay. (B) Alpha-mangostin reduced cell death caused by carvacrol in human keratinocytes. […]
compound,measurement,setting,value
COc1c(O)cc2oc3cc(O)c(CC=C(C)C)c(O)c3c(=O)c2c1CC=C(C)C [Alpha-mangostin],IC50,TRPV1,0.43 ± 0.27 µM
same,Effect on TNF-α levels,TNF-α,no changes
